{"source": "paper PMC7615185", "about": "“Structural basis for ion selectivity in potassium-selective channelrhodopsins” (Cell, 2023)", "molecular_target": "T1, HcKCR1 (Hyphochytrium catenoides, UniProt A0ABF7PQA2, A110C)", "T1 construct": "M1-S265; 7TM rhodopsin domain; Sf9, HA signal/FLAG and eGFP-His10-Rho1D4 tags cleaved by 3C, MSP1E3D1/SoyPC nanodisc; residues 6-260 modelled; homotrimer; eYFP fusion in HEK293 for patch clamp", "T1 sequence (A0ABF7PQA2 1-265 A110C)": "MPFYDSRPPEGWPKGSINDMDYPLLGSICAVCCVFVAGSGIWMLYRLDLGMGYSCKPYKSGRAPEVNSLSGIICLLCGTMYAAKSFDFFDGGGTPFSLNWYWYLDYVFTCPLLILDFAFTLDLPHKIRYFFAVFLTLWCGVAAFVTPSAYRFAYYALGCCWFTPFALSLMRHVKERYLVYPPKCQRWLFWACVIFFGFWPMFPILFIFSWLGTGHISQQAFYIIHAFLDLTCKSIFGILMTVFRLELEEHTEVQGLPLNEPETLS", "test": "cryo-EM structure, retinal isomer by HPLC", "assay_type": "binding", "conditions": "dark state, nanodisc, pH 7.5; covalent Schiff base to K233", "data": [{"smiles": "CC1=C(/C=C/C(C)=C/C=C/C(C)=C/C=O)C(C)(C)CCC1", "note": "[all-trans-retinal]", "values": [{"measurement": "cryo-EM structure, retinal isomer by HPLC", "result": "accurate modeling of most residues of both HcKCRs"}]}]}
